“And” between values parts separate entries of the source, which are not always exact repeats. Identical values can stand only once.
Legend:
Brd4 ET = Brd4 ET (Homo sapiens, UniProt O60885); settings: peptide construct, read-out: binding affinity; cited from earlier work
Molm-13 cells = settings: seven days post transduction; cited from earlier work
C4-2B MDVR cells [1] = test: Growth inhibition in combination with enzalutamide, coefficient of drug interaction; assay type: cell-based; settings: for CDI: with enzalutamide; for CDI / CDI with Enzalutamide: C4-2B MDVR cells; for CDI with Enzalutamide: treated for 5 days; for 3 Day CDI / 5 Day CDI: with enzalutamide (MDV)
Procedure: C4-2B AbiR: abiraterone resistance; C4-2B ApaR: apalutamide resistance; C4-2B DaroR: darolutamide resistance; C4-2B MDVR: enzalutamide resistance.
Piperidine BET protein inhibitor 2 was also found to synergize with enzalutamide in inhibiting the growth of enzalutamide-resistant C4-2b MDVR cells, as shown in FIG. 6A and FIG. 6B.
Organoids generated from enzalutamide resistant LuCaP35CR PDX tumors were treated with either piperazine BET protein inhibitor 10 at concentrations as indicated (A) or in combination with enzalutamide 20 μM(C) for 7 days; representative organoids were imaged under the fluorescence microscope after stained by LIVE/DEAD Viability/Cytotoxicity Kit (Invitrogen MP03224). Organoid viability was measured using CellTiter Glo (Promega Catelog#G9681) for piperazine BET protein inhibitor 10 single treatment (B) and for combinational treatment with enzalutamide (D, E). […] Blue indicates synergy while red indicates antagonism between drugs. The coefficient of drug interaction (CDI) is calculated as follows: CDI=AB/(A×B). A is growth inhibition effect of treatment with the BET protein inhibitor. B is growth inhibition effect of enzalutamide treatment. AB is the growth inhibition effect of the combination treatment. […] The coefficient of drug interaction (CDI) of 20 μM enzalutamide with 0.5 μM BET protein inhibitor combination treatment were 0.97 and 0.91 respectively in LuCaP35CR organoids, evidencing a synergistic effect (CDI=0.4222, <1).
C4-2B MDVR […], and then total cell numbers were determined. * indicates significant difference from control and ** indicates significant difference between Enza drug treatment and the combination treatment; p<0.05.

C4-2B MDVR cells [2] = test: C4-2B MDVR (enzalutamide resistant) cell growth, cell number; assay type: cell-based; settings: for inhibition of cell growth (cell number): 5 μM
Procedure: (§1) Enzalutamide resistant C4-2B MDVR cells and darolutamide resistant C4-2B DaroR cells were treated with candidate compounds at 5 μM. BET (I-BET151; (R)-7-(3,5-dimethylisoxazol-4-yl)-8-methoxy-1-(1-(pyridin-2-yl)ethyl)-1,3-dihydro-2H-imidazo[4,5-c]quinolin-2-one; CAS RN 1300031-49-5) was used as the positive control at 5 μM. The cell number was determined. Only piperazine BET protein inhibitor 10 and the BET control inhibited both C4-2B MDVR and C4-2B DaroR cell growth at a concentration of 5 μM. Other compounds from the screen were not observed to effect cell growth under the test conditions.
C4-2B MDVR cells were treated with increasing doses of piperazine BET protein inhibitor 10 and compound 8 (8-(1-isopropyl-6-methyl-1H-pyrazolo[3,4-b]pyridine-5-carbonyl)-1,3-diazaspiro[4.5]decane-2,4-dione) as indicated. The cell number was determined after 3-day treatment.
(§2) C4-2B and C4-2B MDVR Cells were plated at 20,000 cells per well in 24-well plates and treated as indicated for 6 days. Total cell number was assessed by Coulter Counter. * indicates significant difference from control for each cell line, p<0.05.
C4-2B MDVR cells were plated at 20,000 cells per well in 24-well plates and treated for 5 days with the indicated compounds. The total cell number was determined and expressed as percentage of control. * indicates a significant difference from control, p<0.05.

C4-2B cells = test: C4-2B cell growth, total cell number by Coulter Counter; assay type: cell-based; settings: 1-40 μM, 6 days
Procedure: as §2

C4-2B ApaR cells = test: Growth inhibition in combination with apalutamide, coefficient of drug interaction; assay type: cell-based; settings: with apalutamide (Apa)
C4-2B AbiR cells = test: Growth inhibition in combination with abiraterone, coefficient of drug interaction; assay type: cell-based; settings: with abiraterone (Abi)
AR-FL = test: Western blot of AR-FL expression in C4-2B MDVR cells; assay type: cell-based; settings: increasing doses, 2 days
Procedure: (§3) C4-2B MDVR cells were treated with piperazine BET protein inhibitor 10 and the I-BET151 control at increasing doses for 2 days. The cell lysates were subjected to Western blot analysis for BRD4, AR-FL, and cMYC expression. As shown here, both piperazine BET protein inhibitor 10 and I-BET151 inhibited BRD4, AR-FL, and cMYC protein expression.

cMYC = cMYC expression in C4-2B MDVR cells; assay type: cell-based; settings: increasing doses, 2 days, Western blot
Procedure: as §3

BRD4 = target: T1, BRD4 (Homo sapiens, UniProt O60885); test: Western blot of BRD4 expression in C4-2B MDVR cells; assay type: cell-based; settings: increasing doses, 2 days
T1 construct: endogenous in cells; host or cells: C4-2B MDVR
Procedure: as §3

[3] = tested on: LuCaP49 prostate cancer PDX; test: LuCaP49 prostate cancer PDX tumor growth in mice; assay type: in vivo; settings: 60 mg/kg, i.p., daily, 5 days/week
Procedure: Mice bearing tumors from LuCaP49 prostate cancer PDX were treated with BETi-10 (60 mg/kg, i.p.) daily, 5 days/week. Tumor volume were measured and relative fold changes were calculated compared to the day 0 treatment.

MYC signaling pathway = test: Analysis of total RNA isolated from treated cells; assay type: cell-based; settings: data not shown
C4-2B DaroR cells [4] = test: C4-2B DaroR (darolutamide resistant) cell growth, cell number; assay type: cell-based; settings: 5 μM
Procedure: as §1

C4-2B DaroR cells [5] = test: Growth inhibition in combination with darolutamide, coefficient of drug interaction; assay type: cell-based; settings: with darolutamide (Daro)

17 amino acid region TWRVQRSQNPLKIRKTR(389′-405′) (SEQ ID NO:1) of MLV IN, minimal binding region for Brd4 ET [EBM]
Kd (Brd4 ET): ~160 nM
reduction in cellular proliferation compared to vector control cells (Molm-13 cells): ~10 fold

CC(C)n1nccc1NC(=O)C1CCCN(C(=O)c2ccc(Cl)c(Cl)c2)C1 (stereo not drawn) [Compound 2, 1-(3,4-dichlorobenzoyl)-N-(1-isopropyl-1H-pyrazol-5-yl)piperidine-3-carboxamide]
CDI (C4-2B MDVR cells [1]; 3 Day, 10 μM 2): 0.751
CDI (C4-2B MDVR cells [1]; 3 Day, 20 μM 2): 0.8105
CDI (C4-2B MDVR cells [1]; 5 Day, 10 μM 2): 0.792
CDI (C4-2B MDVR cells [1]; 5 Day, 20 μM 2): 0.702
inhibition of cell growth (total cell number) (C4-2B MDVR cells [2]; 1-40 μM, 6 days): inhibit the growth of C4-2B and C4-2B MDVR cells in a dose-dependent manner
inhibition of cell growth (total cell number) (C4-2B cells): inhibit the growth of C4-2B and C4-2B MDVR cells in a dose-dependent manner

Cc1nc2c(cnn2C(C)C)cc1C(=O)C1CCC2(CC1)NC(=O)NC2=O (stereo not drawn) [Compound 8, 8-(1-isopropyl-6-methyl-1H-pyrazolo[3,4-b]pyridine-5-carbonyl)-1,3-diazaspiro[4.5]decane-2,4-dione]
growth inhibition at increasing doses (C4-2B MDVR cells [2]; 3-day treatment): no growth inhibition was observed

O=C(Nc1cccc(C(=O)N2CCN(CCOc3ccc(Cl)cc3)CC2)c1)C1CCCO1 (stereo not drawn) [Compound 10, N-(3-(4-(2-(4-chlorophenoxy)ethyl)piperazine-1-carbonyl)phenyl)tetrahydrofuran-2-carboxamide]
3 Day CDI (C4-2B ApaR cells; 1 μM (10)): 0.7981
5 Day CDI (C4-2B ApaR cells; 1 μM (10)): 0.639
3 Day CDI (C4-2B ApaR cells; 2.5 μM (10)): 0.7358
5 Day CDI (C4-2B ApaR cells; 2.5 μM (10)): 0.54 and 0.5381
3 Day CDI (C4-2B AbiR cells; 1 μM (10)): 1.019
5 Day CDI (C4-2B AbiR cells; 1 μM (10)): 1.362
3 Day CDI (C4-2B AbiR cells; 2.5 μM (10)): 0.914
5 Day CDI (C4-2B AbiR cells; 2.5 μM (10)): 0.98 and 0.9835
AR-FL protein expression (AR-FL): inhibited
cMYC protein expression (cMYC): inhibited
BRD4 protein expression (BRD4): inhibited
tumor growth (tumor volume, relative fold change to day 0) [3]: inhibit the growth
inhibition of the MYC signaling pathway (MYC signaling pathway): inhibit the MYC signaling pathway
CDI with Enzalutamide (C4-2B MDVR cells [1]): 0.76
3 Day CDI (C4-2B MDVR cells [1]; 1 μM (10)): 0.6791
5 Day CDI (C4-2B MDVR cells [1]; 1 μM (10)): 0.3464
3 Day CDI (C4-2B MDVR cells [1]; 2.5 μM (10)): 0.5693
5 Day CDI (C4-2B MDVR cells [1]; 2.5 μM (10)): 0.26 and 0.2628
inhibition of cell growth (cell number) (C4-2B MDVR cells [2]): inhibited
growth inhibition at increasing doses (C4-2B MDVR cells [2]; 3-day treatment): inhibited growth of C4-2B MDVR cells in a dose-dependent manner
IC50 (C4-2B MDVR cells [2]; 72 h, 3-day treatment): 1700 to 2100 nM
inhibition of cell growth (cell number) (C4-2B DaroR cells [4]): inhibited
3 Day CDI (C4-2B DaroR cells [5]; 1 μM (10)): 0.6607
5 Day CDI (C4-2B DaroR cells [5]; 1 μM (10)): 0.4574
3 Day CDI (C4-2B DaroR cells [5]; 2.5 μM (10)): 0.6111
5 Day CDI (C4-2B DaroR cells [5]; 2.5 μM (10)): 0.38 and 0.3762

O=C(Nc1cccc(C(=O)N2CCN(CCOc3ccc(Cl)cc3)CC2)c1)c1ccco1 [Compound 11, N-(3-(4-(2-(4-chlorophenoxy)ethyl)piperazine-1-carbonyl)phenyl)furan-2-carboxamide]
inhibition of the MYC signaling pathway (MYC signaling pathway): inhibit the MYC signaling pathway
CDI with Enzalutamide (C4-2B MDVR cells [1]): 0.90

N[C@@H](Cc1c[nH]c2ccccc12)C(=O)Nc1cccc(C(=O)N2CCN(CCOc3ccc(Cl)cc3)CC2)c1 [Compound 12, (S)-2-Amino-N-(3-(4-(2-(4-chlorophenoxy)ethyl)piperazine-1-carbonyl)phenyl)-3-(1H-indol-3-yl)propenamide]
CDI with Enzalutamide (C4-2B MDVR cells [1]): 0.90

CC(C)(C)OC(=O)N[C@@H](Cc1c[nH]c2ccccc12)C(=O)Nc1cccc(C(=O)N2CCN(CCOc3ccc(Cl)cc3)CC2)c1 [Compound 13]
CDI with Enzalutamide (C4-2B MDVR cells [1]): 0.81

N[C@@H](Cc1c[nH]cn1)C(=O)Nc1cccc(C(=O)N2CCN(CCOc3ccc(Cl)cc3)CC2)c1 [Compound 14, (S)-2-Amino-N-(3-(4-(2-(4-chlorophenoxy)ethyl)piperazine-1-carbonyl)phenyl)-3-(1H-imidazol-4-yl)propenamide]
CDI with Enzalutamide (C4-2B MDVR cells [1]): 0.82

COc1cc2c(cc1-c1c(C)noc1C)ncc1[nH]c(=O)n([C@H](C)c3ccccn3)c12 [I-BET151, (R)-7-(3,5-dimethylisoxazol-4-yl)-8-methoxy-1-(1-(pyridin-2-yl)ethyl)-1,3-dihydro-2H-imidazo[4,5-c]quinolin-2-one, reference compound]
AR-FL protein expression (AR-FL): inhibited
cMYC protein expression (cMYC): inhibited
BRD4 protein expression (BRD4): inhibited
inhibition of cell growth (cell number) (C4-2B MDVR cells [2]): inhibited
inhibition of cell growth (cell number) (C4-2B DaroR cells [4]): inhibited
